Experimental data as given in ChEMBL document CHEMBL2384927, “Development of Unsymmetrical Dyads As Potent Noncarbohydrate-Based Inhibitors against Human β-N-Acetyl-d-hexosaminidase” (ACS Med Chem Lett, 2013).
Activity calls are given as the source filed them. The calls are words filed in the database; no cut-off is given here.

molecular target: T1, Beta-N-acetyl-D-hexosaminidase-A/B (Homo sapiens) (UniProt P07686+P06865); test: Inhibition of human beta-N-acetyl-D-hexosaminidase-A/B using 4-Methylumbelliferyl N-acetyl-beta-D-glucosaminide as substrate at 50 uM incubated for 10 mins prior to substrate addition by spectrofluorometric analysis relative to control; format: protein assay

Row | SMILES | inhibition [%]
1 | COc1ccc2c3c(cccc13)C(=O)N(CCN)C2=O | < 50
2 | CN(C)c1ccc2c3c(cccc13)C(=O)N(CCN)C2=O | < 50
3 | NCCN1C(=O)c2cccc3cccc1c23 | < 50
4 | NCCCCCCN1C(=O)c2cccc3cccc(c23)C1=O | < 50
5 | NCCN1C(=O)c2cccc3c(Br)ccc(c23)C1=O | < 50
6 | NCCN1C(=O)c2ccccc2C1=O | < 50

Continued, values first:

Row | inhibition [%] | SMILES
7 | < 50 | COc1ccc(SCCCNCCN2C(=O)c3cccc4cccc(c34)C2=O)cc1
8 | < 50 | O=C1c2cccc3cccc(c23)C(=O)N1CCNCCOc1ccc([N+](=O)[O-])cc1
9 | < 50 | O=C1c2cccc3cccc(c23)C(=O)N1CCNCCOc1ccc(OC(F)(F)F)cc1
10 | < 50 | O=C1c2cccc3cccc(c23)C(=O)N1CCNCCOc1ccc(Cl)cc1
11 | < 50 | COc1cccc(NCCNCCN2C(=O)c3cccc4cccc(c34)C2=O)c1

molecular target: T2, Beta-N-acetyl-D-hexosaminidase-A/B (Homo sapiens, UniProt P07686+P06865); test: Inhibition of human beta-N-acetyl-D-hexosaminidase-A/B using 4-Methylumbelliferyl N-acetyl-beta-D-glucosaminide as substrate incubated for 10 mins prior to substrate addition by spectrofluorometric analysis; format: protein assay
T2 sequence (P07686 whole entry): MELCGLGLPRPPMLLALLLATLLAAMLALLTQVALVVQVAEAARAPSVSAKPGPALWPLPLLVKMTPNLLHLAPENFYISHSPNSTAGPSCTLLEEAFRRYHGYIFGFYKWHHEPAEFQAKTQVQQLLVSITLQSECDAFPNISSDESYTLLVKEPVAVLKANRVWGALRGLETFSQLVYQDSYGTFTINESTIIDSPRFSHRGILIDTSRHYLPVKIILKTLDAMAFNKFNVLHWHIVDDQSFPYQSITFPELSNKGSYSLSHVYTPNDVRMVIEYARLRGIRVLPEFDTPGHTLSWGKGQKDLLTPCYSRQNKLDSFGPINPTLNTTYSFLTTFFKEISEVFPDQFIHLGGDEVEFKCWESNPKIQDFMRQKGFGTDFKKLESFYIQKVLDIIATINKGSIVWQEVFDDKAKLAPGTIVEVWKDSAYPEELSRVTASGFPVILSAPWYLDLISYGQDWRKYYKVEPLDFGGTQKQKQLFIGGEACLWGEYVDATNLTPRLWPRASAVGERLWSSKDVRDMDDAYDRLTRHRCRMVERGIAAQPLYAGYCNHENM
T2 sequence (P06865 whole entry): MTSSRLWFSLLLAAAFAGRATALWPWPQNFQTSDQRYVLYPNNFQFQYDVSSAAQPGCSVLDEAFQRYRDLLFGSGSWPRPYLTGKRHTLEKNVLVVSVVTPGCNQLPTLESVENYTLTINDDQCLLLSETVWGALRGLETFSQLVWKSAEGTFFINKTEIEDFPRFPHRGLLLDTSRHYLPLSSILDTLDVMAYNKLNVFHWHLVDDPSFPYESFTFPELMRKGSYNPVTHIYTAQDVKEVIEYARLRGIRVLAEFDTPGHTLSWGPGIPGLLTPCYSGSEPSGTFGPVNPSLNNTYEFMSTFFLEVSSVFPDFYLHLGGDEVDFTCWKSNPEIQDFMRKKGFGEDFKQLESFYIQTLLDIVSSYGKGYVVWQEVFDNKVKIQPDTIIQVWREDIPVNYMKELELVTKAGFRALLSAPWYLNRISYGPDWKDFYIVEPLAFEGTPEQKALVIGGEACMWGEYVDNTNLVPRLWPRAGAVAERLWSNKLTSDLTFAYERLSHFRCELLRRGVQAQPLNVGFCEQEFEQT

Row | SMILES | Ki [µM]
12 | O=C1c2cccc3cccc(c23)C(=O)N1CCO | 30.87
13 | O=C1c2cccc3cccc(c23)C(=O)N1CCNCCN1C(=O)c2cccc3cccc(c23)C1=O | 3.22
14 | NCCN1C(=O)c2cccc3cccc(c23)C1=O | 2.09
15 | NCCCCN1C(=O)c2cccc3cccc(c23)C1=O | 61.74
16 | NCCCN1C(=O)c2cccc3cccc(c23)C1=O [NAPHTHALIMIDOPROPYLAMINE] | 29.08
17 | COc1ccc(CNCCN2C(=O)c3cccc4cccc(c34)C2=O)cc1OC | 4.99
18 | CN(C)CCN1C(=O)c2cccc3cccc(c23)C1=O | 2.81

Other lines, results leading:

Row | Ki [µM] | SMILES
19 | 0.63 | COc1ccc(CNCCN2C(=O)c3cccc4cccc(c34)C2=O)cc1
20 | 6.22 | COc1cccc(CNCCN2C(=O)c3cccc4cccc(c34)C2=O)c1
21 | 1.13 | COc1ccc(SCCNCCN2C(=O)c3cccc4cccc(c34)C2=O)cc1
22 | 1.23 | COc1ccc(OCCCNCCN2C(=O)c3cccc4cccc(c34)C2=O)cc1
23 | 0.93 | COc1cccc(OCCNCCN2C(=O)c3cccc4cccc(c34)C2=O)c1
24 | 0.69 | COc1ccc(OCCNCCN2C(=O)c3cccc4cccc(c34)C2=O)cc1OC
25 | 4.2 | COC(=O)c1ccc(OCCNCCN2C(=O)c3cccc4cccc(c34)C2=O)cc1
26 | 4.63 | COc1ccc(NCCNCCN2C(=O)c3cccc4cccc(c34)C2=O)c(OC)c1
27 | 3 | O=C1c2cccc3cccc(c23)C(=O)N1CCNCCOc1ccc2c(c1)OCO2
28 | 4.39 | COc1cccc(OCCCNCCN2C(=O)c3cccc4cccc(c34)C2=O)c1
29 | 1.08 | COc1ccc(NCCNCCN2C(=O)c3cccc4cccc(c34)C2=O)cc1
30 | 1.04 | COc1ccc(OCCNCCN2C(=O)c3cccc4cccc(c34)C2=O)cc1
31 | 1.35 | COc1ccccc1OCCNCCN1C(=O)c2cccc3cccc(c23)C1=O

molecular target: T1, Beta-N-acetyl-D-hexosaminidase-A/B (Homo sapiens); test: Competitive inhibition of human beta-N-acetyl-D-hexosaminidase-A/B using 4-Methylumbelliferyl N-acetyl-beta-D-glucosaminide as substrate at 0.1 mM incubated for 10 mins prior to substrate addition by Dixon plot analysis; format: protein assay

Row | inhibition | SMILES
32 | Active | COc1ccc(CNCCN2C(=O)c3cccc4cccc(c34)C2=O)cc1

molecular target: T3, Beta-hexosaminidase subunit beta (Homo sapiens, UniProt P07686); test: Competitive inhibition of human beta-N-acetyl-D-hexosaminidase-B using 4-Methylumbelliferyl N-acetyl-beta-D-glucosaminide as substrate assessed as release of 4-Methylumbelliferyl fluorophore measured for 7 mins
T3 sequence (P07686 whole entry): T2 sequence (P07686 whole entry)

Row | IC50 [µM] | SMILES
33 | 3.1 | O=C1c2cccc3cccc(c23)C(=O)N1CCNCCN1C(=O)c2cccc3cccc(c23)C1=O

molecular target: T4, Beta-hexosaminidase subunit alpha (Homo sapiens, UniProt P06865); test: Competitive inhibition of human beta-N-acetyl-D-hexosaminidase-A using 4-Methylumbelliferyl N-acetyl-beta-D-glucosaminide as substrate assessed as release of 4-Methylumbelliferyl fluorophore measured for 7 mins
T4 sequence (P06865 whole entry): T2 sequence (P06865 whole entry)

Row | IC50 [µM] | SMILES
34 | 6 | O=C1c2cccc3cccc(c23)C(=O)N1CCNCCN1C(=O)c2cccc3cccc(c23)C1=O
